Test results taken from ChEMBL document CHEMBL5728495, “Substituted isoindolin-1-ones and 2,3-dihydro-1h-pyrrolo[3,4-c]pyridin-1-ones as HPK1 antagonists” (2021).
pIC50: −log10 of the molar value.

target: Mitogen-activated protein kinase kinase kinase kinase 1 (Homo sapiens, UniProt Q92918); assay: Biochemical Enzyme Assay: HPK1 biochemical enzyme assay: HPK1 enzyme inhibition was measured using a microfluidic mobility shift assay. […] Test compounds were titrated in ten point curves (top final assay concentration 3 μM), and preincubated with enzyme/substrate mix for 30 min prior to initiation of the reaction by addition of ATP (1 mM final concentration) and substrate (1 μM final concentration; Carna Biosciences) diluted in assay buffer supplemented by MgCl2 (final assay concentration of 5 mM). Following 60 min incubation at RT, the reaction was terminated by addition of 60 µl/well termination buffer (Carna Biosciences) and signal determination using aCaliper EZ Reader (Perkin Elmer, UK).
Sequence (Q92918 whole entry): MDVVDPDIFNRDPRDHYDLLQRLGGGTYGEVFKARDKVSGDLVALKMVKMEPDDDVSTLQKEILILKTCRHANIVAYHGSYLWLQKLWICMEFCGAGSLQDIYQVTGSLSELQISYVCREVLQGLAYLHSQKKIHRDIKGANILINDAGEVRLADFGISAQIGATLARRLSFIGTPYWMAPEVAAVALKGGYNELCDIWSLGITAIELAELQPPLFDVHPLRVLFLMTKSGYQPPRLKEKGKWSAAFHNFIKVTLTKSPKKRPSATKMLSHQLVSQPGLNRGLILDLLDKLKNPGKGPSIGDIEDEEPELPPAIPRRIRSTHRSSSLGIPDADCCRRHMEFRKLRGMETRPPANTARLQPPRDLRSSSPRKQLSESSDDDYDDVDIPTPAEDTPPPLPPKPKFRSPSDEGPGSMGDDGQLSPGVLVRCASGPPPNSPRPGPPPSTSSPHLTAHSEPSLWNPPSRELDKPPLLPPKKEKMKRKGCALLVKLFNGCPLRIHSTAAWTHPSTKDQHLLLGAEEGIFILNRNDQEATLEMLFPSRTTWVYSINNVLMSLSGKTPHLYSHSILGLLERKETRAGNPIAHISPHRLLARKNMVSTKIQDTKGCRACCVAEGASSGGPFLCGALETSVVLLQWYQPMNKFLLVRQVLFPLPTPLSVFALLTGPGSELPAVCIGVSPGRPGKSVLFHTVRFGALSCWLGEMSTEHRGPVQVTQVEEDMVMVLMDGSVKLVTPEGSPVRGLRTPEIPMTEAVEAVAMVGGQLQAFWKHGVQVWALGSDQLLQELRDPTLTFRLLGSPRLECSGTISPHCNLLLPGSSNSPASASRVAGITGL

pIC50, > 7.00:
COCC1(O)CCN(c2ccc(Nc3ccc(-c4cnc5cc(F)ccn45)c4c3C(=O)NC4)nc2)CC1
O=C1NCc2c(-c3cnc4cc(F)ccn34)ccc(Nc3ccc([C@]4(O)CCOC4)cn3)c21
Cn1ccc2c(-c3ccc(Nc4ccc(N5CCO[C@H](C(C)(C)O)C5)cn4)c4c3CNC4=O)ncnc21
Cn1ccc2c(-c3ncc(Nc4ccc(N5CCOCC5)cn4)c4c3CNC4=O)ccnc21
CN(C)C[C@H]1CN(c2ccc(Nc3cnc(-c4ccnc5c4ccn5C)c4c3C(=O)NC4)nc2)CCO1
CN(C)CCc1nc(Nc2ccc(-c3cnc4cc(F)ccn34)c3c2C(=O)NC3)ccc1[C@H]1CCOC1
CN(C)CCc1nc(Nc2ccc(-c3cnc4cc(F)ccn34)c3c2C(=O)NC3)ccc1[C@@H]1CCOC1
Cc1ccn2c(-c3ccc(Nc4ccc(N5CCC[C@](O)(CN(C)C)C5)cn4)c4c3CNC4=O)cnc2c1F
C[C@@H]1CCn2ncc(-c3ccc(Nc4ccc(N5CCN(C)CC5)cn4)c4c3CNC4=O)c2C1
COc1cc(Nc2ccc(-c3ccnc4c3ccn4C)c3c2C(=O)NC3)ncc1N1CCC(O)CC1
O=C1NCc2c(-c3cnc4ccccn34)ncc(Nc3ccc(N4CC[C@@H](F)[C@H](O)C4)cn3)c21
CN(C)C[C@H]1CN(c2ccc(Nc3ccc(-c4cnc5cc(Cl)ccn45)c4c3C(=O)NC4)nc2)CCO1
CC(C)(NC1CC1)C1CN(c2ccc(Nc3ccc(-c4cnc5cc(F)ccn45)c4c3C(=O)NC4)nc2)CCO1 (stereo unspecified)
O=C1NCc2c(-c3cnc4cc(F)ccn34)ccc(Nc3ccc([C@@]4(O)CCOC4)cn3)c21
Cn1ccc2c(-c3ccc(Nc4ccc(N5CCO[C@@H](C(C)(C)O)C5)cn4)c4c3CNC4=O)ncnc21
COC1(CO)CCN(c2ccc(Nc3ccc(-c4cnc5cc(F)ccn45)c4c3C(=O)NC4)nc2)CC1
Cc1ccn2c(-c3ccc(Nc4ccc(N5CCC[C@@](O)(CN(C)C)C5)cn4)c4c3CNC4=O)cnc2c1F
CCN(C)Cc1nc(Nc2ccc(-c3cnc4cc(F)ccn34)c3c2C(=O)NC3)ccc1[C@H]1CCOC1
O=C1NCc2c(-c3cnc4ccccn34)ncc(Nc3ccc(C4(O)CCOCC4)cn3)c21
Cc1cc(Nc2ccc(N3CCC(O)CC3)cn2)c2c(c1-c1cccc3c1ccn3C)CNC2=O
CN(C)C1(c2ccc(Nc3ccc(-c4cnc5cc(F)ccn45)c4c3C(=O)NC4)nc2)CCOCC1
CN1CC[C@H](c2ccc(Nc3cnc(-c4ccnc5c4ccn5C)c4c3C(=O)NC4)nc2)CC1=O
Cn1ccc2c(-c3ncc(Nc4ccc(N5CCC(C)(O)CC5)cn4)c4c3CNC4=O)ccnc21
CN(C)C[C@@H]1CN(c2ccc(Nc3cnc(-c4ccnc5c4ccn5C)c4c3C(=O)NC4)nc2)CCO1
O=C1NCc2c(-c3cnc4cc(C(F)F)ccn34)ccc(Nc3ccc([C@]4(O)CCOC4)cn3)c21
CN1CC[C@@H](c2ccc(Nc3cnc(-c4ccnc5c4ccn5C)c4c3C(=O)NC4)nc2)CC1=O
